Where two headings read alike, the source gives them in different places.
How the values were obtained:
FLT3 = molecular target: T1, FLT3 (Homo sapiens, UniProt P36888); experiment: KinomeScan Kd determination, FLT3; assay type: binding; conditions: for KdRTK/KdKIT, FLT3: Kd FLT3 over Kd KIT; for Kd: KinomeScan
T1 construct: purchased DiscoverX (KinomeScan service)
T1 sequence (P36888 27-993): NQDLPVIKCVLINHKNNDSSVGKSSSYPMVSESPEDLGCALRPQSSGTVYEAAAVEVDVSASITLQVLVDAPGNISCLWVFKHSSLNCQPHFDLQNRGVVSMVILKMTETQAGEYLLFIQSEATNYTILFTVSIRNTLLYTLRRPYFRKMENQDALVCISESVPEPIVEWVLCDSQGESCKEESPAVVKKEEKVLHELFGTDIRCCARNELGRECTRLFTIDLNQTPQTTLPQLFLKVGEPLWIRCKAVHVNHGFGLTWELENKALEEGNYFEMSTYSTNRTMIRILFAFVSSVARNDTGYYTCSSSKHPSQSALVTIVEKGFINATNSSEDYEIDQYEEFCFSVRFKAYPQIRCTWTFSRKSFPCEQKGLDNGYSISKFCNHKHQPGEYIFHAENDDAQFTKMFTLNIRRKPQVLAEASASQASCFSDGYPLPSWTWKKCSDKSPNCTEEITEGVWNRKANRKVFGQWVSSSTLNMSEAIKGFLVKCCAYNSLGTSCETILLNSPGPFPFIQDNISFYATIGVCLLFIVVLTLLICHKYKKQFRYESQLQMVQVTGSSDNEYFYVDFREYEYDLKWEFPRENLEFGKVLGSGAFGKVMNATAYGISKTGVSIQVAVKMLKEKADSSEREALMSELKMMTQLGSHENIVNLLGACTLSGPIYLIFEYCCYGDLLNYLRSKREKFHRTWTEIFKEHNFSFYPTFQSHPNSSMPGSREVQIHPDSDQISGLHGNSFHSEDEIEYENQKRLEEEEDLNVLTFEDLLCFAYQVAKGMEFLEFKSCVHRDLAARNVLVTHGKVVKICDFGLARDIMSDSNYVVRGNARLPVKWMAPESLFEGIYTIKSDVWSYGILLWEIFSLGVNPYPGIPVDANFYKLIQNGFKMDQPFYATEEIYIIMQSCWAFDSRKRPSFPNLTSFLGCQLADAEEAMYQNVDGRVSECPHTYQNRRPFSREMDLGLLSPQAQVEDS
Experimental: (§1) The compounds were evaluated using the KinomeScan™ platform (http://www.discoverx.com/services/drug-discovery-development-services/kinase-profiling/kinomescan), that measures the ability of the test compound to disrupt the complex between a high affinity ATP-mimic probe immobilized on a solid support and the kinase of interest. The KinomeScan is a very helpful technology for the fast and reliable screening of a number of compounds against a wide and customizable panel of kinases. Besides, it is not based on the use of hazardous radioactive ^32P-ATP and has a very low rate of false positive (<1%)[44]. The screening platform outputs a “Percent of Control” (POC) value, statistically correlated to the dissociation constant (Kd) value (http://www.discoverx.com/tools-resources/leadhunter-study-reports-data-analysis), for each pair of kinase/ligand. The POC is calculated as reported in equation (1): […]
(§2) The ability of compounds 19 and 27 to bind the class III RTK members was measured (Table 2; see also Figs S3 and S4 for dose/response curves).
(§3) Figure S3. Dose/response curve for compound 19 against tested kinases for Kd determination. The amount of kinase measured by qPCR (Signal; y-axis) is plotted against the corresponding compound concentration in nM in log10 scale (x-axis). Data points marked with an "x" were not used for Kd determination.
(§4) (1 picture or pasted object on this page, not shown here)
(§5) Figure S4. Dose/response curve for compound 27 against tested kinases for Kd

PDGFRα = molecular target: T2, PDGFRα (Homo sapiens, UniProt P16234); experiment: KinomeScan Kd determination, PDGFRα; assay type: binding; conditions: for KdRTK/KdKIT, PDGFRα: Kd PDGFRα over Kd KIT; for Kd: KinomeScan
T2 construct: purchased DiscoverX (KinomeScan service)
Experimental: as §1, §2, §3, §4, §5

2008 cells = experiment: MTT cytotoxicity assay, 2008 ovarian cancer cells; assay type: cell-based; conditions: Homo sapiens; MTT test, 72 h; read-out: 2008 IC50 (μM) ± SD
Experimental: The cytotoxic profile of 19 and 27 was assessed on a wider panel of human tumor cell lines including also examples of breast (MCF-7), cervical (A431), colorectal (HCT-15), and ovarian (2008) cancers as well as melanoma (A375), besides lung (A549) and pancreatic (BxPC3) cancer cells. IC50 values, calculated from the dose-survival curves obtained after 72 h of drug treatment from the MTT test, are reported in Table 2. […] Both compounds were endowed with a cytotoxic potency higher than that of SU, eliciting IC50 values in the low micromolar range.
All compounds, except derivative 27, were dissolved in DMSO just before the experiment, and a calculated amount of drug solution was added to the cell growth medium to a final solvent concentration of 0.5%, which had no discernible effect on cell killing. Compound 27 was dissolved in a 0.9% NaCl solution just before the experiment.
Human lung (A549), breast (MCF-7), pancreas (BxPC3), and colon (LoVo) carcinoma cell lines along with melanoma (A375) were obtained from American Type Culture Collection (ATCC, Rockville, MD). Human non-tumor embryonic kidney HEK293 cells were obtained from European Collection of Cell Cultures (ECACC, Salisbury, UK). Human cervical carcinoma A431cells were kindly provided by Prof. F. Zunino (Division of Experimental Oncology B, Istituto Nazionale dei Tumori, Milan, Italy). Human ovarian cancer 2008 cells were kindly provided by Prof. G. Marverti (Dept. of Biomedical Science of Modena University, Italy). […]
The growth inhibitory effect towards human cell lines was evaluated by means of MTT (tetrazolium salt reduction) assay. […] After overnight incubation, the inhibition of cell growth induced by the tested complexes was detected by measuring the absorbance of each well at 570 nm using a Bio-Rad 680 microplate reader (Bio-Rad, Hercules, CA). Mean absorbance for each drug dose was expressed as a percentage of the control untreated well absorbance and plotted vs drug concentration.

T2 sequence (P16234 24-1089): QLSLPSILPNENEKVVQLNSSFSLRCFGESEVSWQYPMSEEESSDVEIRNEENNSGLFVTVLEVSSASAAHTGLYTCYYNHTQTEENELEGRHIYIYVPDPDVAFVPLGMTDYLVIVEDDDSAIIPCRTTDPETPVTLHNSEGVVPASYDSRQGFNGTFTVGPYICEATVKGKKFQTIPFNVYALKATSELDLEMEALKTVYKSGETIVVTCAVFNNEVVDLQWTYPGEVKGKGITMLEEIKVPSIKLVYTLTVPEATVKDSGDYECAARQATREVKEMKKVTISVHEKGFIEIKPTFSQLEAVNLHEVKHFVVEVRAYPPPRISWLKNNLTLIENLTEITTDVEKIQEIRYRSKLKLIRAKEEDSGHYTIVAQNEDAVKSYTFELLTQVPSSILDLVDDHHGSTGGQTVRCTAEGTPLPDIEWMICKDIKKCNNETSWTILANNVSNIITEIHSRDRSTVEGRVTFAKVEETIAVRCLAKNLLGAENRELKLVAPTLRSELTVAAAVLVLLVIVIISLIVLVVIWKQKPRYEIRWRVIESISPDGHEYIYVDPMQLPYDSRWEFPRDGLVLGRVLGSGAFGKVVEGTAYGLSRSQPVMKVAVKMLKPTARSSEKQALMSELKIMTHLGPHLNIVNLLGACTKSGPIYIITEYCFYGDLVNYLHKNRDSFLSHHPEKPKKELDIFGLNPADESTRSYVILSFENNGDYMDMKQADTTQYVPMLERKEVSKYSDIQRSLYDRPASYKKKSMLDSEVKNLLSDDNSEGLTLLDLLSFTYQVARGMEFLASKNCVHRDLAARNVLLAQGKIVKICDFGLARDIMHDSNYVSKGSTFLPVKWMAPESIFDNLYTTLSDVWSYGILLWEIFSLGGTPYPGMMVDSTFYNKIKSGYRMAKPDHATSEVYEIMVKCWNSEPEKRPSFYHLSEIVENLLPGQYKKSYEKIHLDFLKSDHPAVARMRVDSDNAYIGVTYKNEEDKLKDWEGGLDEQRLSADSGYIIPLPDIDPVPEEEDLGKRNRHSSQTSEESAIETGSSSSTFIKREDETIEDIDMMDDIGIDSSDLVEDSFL

Structure (SMILES) | Potency improvement Kd19/Kd27, FLT3 (FLT3; 27 versus 19) | KdRTK/KdKIT, FLT3 (FLT3) | Kd (FLT3; bound stated, read-out: Kd against FLT3) [nM] | Kd (FLT3; read-out: Kd (nM) FLT3) [nM] | Potency improvement Kd19/Kd27, PDGFRα (PDGFRα; 27 versus 19) | KdRTK/KdKIT, PDGFRα (PDGFRα) | Kd (PDGFRα) [nM] | IC50 (2008 cells) [µM]
O=C(CN1CCOCC1)Nc1cccc(-c2cc(Nc3ccc(NC(=O)Nc4ccccc4)cc3)ncn2)c1 [Compound 27] | 3.5 | 130 | > 1000 | 1300 | 8.7 | 11 | 110 | 1.82 ± 0.73
O=C(Nc1ccccc1)Nc1ccc(Nc2cc(-c3ccccc3)ncn2)cc1 [Compound 19] |  | 209 |  | 4600 |  | 44 | 960 | 1.98 ± 0.75
